# Results from US8304539B2, “Fused heteroaryl modulators of glucocorticoid receptor, AP-1, and/or NF-κB activity and use thereof” (Bristol-Myers Squibb Company, priority 2008, dated 2012).
# Target: T1, human full-length glucocorticoid receptor (Homo sapiens, UniProt P04150)
# T1 construct: recombinantly expressed human full-length glucocorticoid receptor; purchased PanVera Co., Madison, Wis; P2816
# T1 sequence (P04150 1-777): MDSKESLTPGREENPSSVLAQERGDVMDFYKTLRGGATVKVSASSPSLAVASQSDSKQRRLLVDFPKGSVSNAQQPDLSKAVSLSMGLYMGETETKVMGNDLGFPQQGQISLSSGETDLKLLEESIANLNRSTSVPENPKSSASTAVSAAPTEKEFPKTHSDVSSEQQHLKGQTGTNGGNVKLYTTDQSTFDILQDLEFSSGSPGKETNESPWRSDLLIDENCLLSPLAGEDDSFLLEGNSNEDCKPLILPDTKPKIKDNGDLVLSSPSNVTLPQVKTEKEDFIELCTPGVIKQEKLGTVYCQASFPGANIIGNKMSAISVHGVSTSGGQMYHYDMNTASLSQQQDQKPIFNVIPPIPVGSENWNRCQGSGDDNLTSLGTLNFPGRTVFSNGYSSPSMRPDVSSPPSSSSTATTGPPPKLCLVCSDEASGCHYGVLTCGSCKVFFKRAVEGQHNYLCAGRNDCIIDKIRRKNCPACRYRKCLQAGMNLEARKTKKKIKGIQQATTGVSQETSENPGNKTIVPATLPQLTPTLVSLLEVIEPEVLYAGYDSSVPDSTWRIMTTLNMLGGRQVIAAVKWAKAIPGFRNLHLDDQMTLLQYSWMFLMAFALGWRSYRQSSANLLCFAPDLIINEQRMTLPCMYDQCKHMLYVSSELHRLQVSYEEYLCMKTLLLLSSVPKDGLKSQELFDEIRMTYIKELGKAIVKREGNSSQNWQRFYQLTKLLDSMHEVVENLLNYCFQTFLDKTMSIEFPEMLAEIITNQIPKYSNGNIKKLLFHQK
# Experiment: GR binding Assay II (fluorescence polarization competitor assay)
# Conditions: given where AP-1 EC50 is greater than 1 uM and/or maximal inhibition is less than 20%; read-out: GR (Ki, nM) (measured in GR binding Assay II)
# Experimental: Glucocorticoid Receptor Binding Assay (II)
# In order to measure the binding of compounds on the glucocorticoid receptor a commercially available kit was used (Glucocorticoid receptor competitor assay kit, PanVera Co., Madison, Wis., P2816). Briefly, a cell lysate containing recombinantly expressed human full-length glucocorticoid receptor was mixed with a fluorescently labeled glucocorticoid (1 nM Fluormone GS1) in the presence or absence of test compound. After one hour at room temperature, the fluorescence polarization (FP) of the samples were measured. The FP of a mixture of receptor, fluorescent probe (i.e. Fluormone GS1) and 1 mM dexamethasone represented background fluorescence or 100% inhibition, whereas, the FP of the mixture without dexamethasone was taken to be 100% binding. The percentage inhibition of test molecules were then compared to the sample with 1 mM dexamethasone and expressed as % relative binding activity with dexamethasone being 100% and no inhibition is 0%. Test molecules were analyzed in the concentration range from 2.4 nM to 40 microMolar.
row,Compound,Ki [nM]
1,CC(C)(C(=O)Nc1nnc(C(=O)NC2CC2)s1)C1c2cccnc2Oc2nc(-c3ccc(C(=O)N4CCOCC4)cc3)ccc21 (stereo not shown) [Example 6],59
2,Cc1ccc2c(n1)Oc1nc(-c3ccc(OC(F)(F)F)cc3)ccc1[C@H]2C(C)(C)C(=O)Nc1nncs1 [Example 24],2.66
3,Cc1ccc2c(n1)Oc1nc(-c3ccc(S(=O)(=O)N(C)C)cc3)ccc1[C@H]2C(C)(C)C(=O)Nc1nncs1 [Example 25],172
4,Cc1ccc2c(n1)Oc1nc(-c3ccc(C(=O)NC(C)(C)C)cc3)ccc1[C@H]2C(C)(C)C(=O)Nc1nncs1 [Example 26],591
5,"Cc1ccc2c(n1)Oc1nc(-c3ccc(S(C)(=O)=O)cc3)ccc1[C@H]2C(C)(C)C(=O)Nc1nncs1 [Example 37, 2-methyl-2-((5S)-2-methyl-8-(4-(methylsulfonyl)phenyl)-5H-pyrido[3′,2′:5,6]pyrano[2,3-b]pyridin-5-yl)-N-1,3,4-thiadiazol-2-ylpropanamide]",78.9
6,Cc1ccc2c(n1)Oc1nc(-c3ccc(C(=O)N4CCC(F)(F)C4)c(F)c3)ccc1[C@H]2C(C)(C)C(=O)Nc1nncs1 [Example 39],38.2
7,Cc1ccc2c(n1)Oc1nc(-c3ccc(C(=O)N(C)C)cc3)ccc1[C@H]2C(C)(C)C(=O)Nc1nnc(C(=O)NC2CC2)s1 [Example 43],11.6
8,CNC(=O)c1cnc(NC(=O)C(C)(C)[C@H]2c3ccc(C)nc3Oc3nc(-c4ccc(C(=O)N(C)C)cc4)ccc32)s1 [Example 51],423
9,Cc1ccc2c(n1)Oc1nc(-c3ccc(C(=O)N(C)C)cc3)ccc1[C@H]2C(C)(C)C(=O)Nc1ncc(C(=O)N2CCOCC2)s1 [Example 52],411
10,"C=Cc1ccc2c(n1)Oc1nc(-c3ccc(C(=O)N(C)C)cc3)ccc1C2C(C)(C)C(=O)Nc1nncs1 (stereo not shown) [Example 64, 4-(5-(1,1-dimethyl-2-oxo-2-(1,3,4-thiadiazol-2-ylamino)ethyl)-8-vinyl-5H-pyrido[3′,2′:5,6]pyrano[2,3-b]pyridin-2-yl)-N,N-dimethylbenzamide]",80.8
11,"CN(C)C(=O)c1ccc(-c2ccc3c(n2)Oc2nc(N4CCOCC4)ccc2C3C(C)(C)C(=O)Nc2nncs2)cc1 (stereo not shown) [Example 69, 4-(5-(1,1-dimethyl-2-oxo-2-(1,3,4-thiadiazol-2-ylamino)ethyl)-8-(4-morpholinyl)-5H-pyrido[3′,2′:5,6]pyrano[2,3-b]pyridin-2-yl)-N,N-dimethylbenzamide]",68.9
12,"CN(C)C(=O)c1ccc(-c2ccc3c(n2)Oc2nc(N4CCCC4)ccc2C3C(C)(C)C(=O)Nc2nncs2)cc1 (stereo not shown) [Example 70, 4-(5-(1,1-dimethyl-2-oxo-2-(1,3,4-thiadiazol-2-ylamino)ethyl)-8-(1-pyrrolidinyl)-5H-pyrido[3′,2′:5,6]pyrano[2,3-b]pyridin-2-yl)-N,N-dimethylbenzamide]",385
13,Cc1ccc2c(n1)Oc1nc(-c3ccc(OC4CCCC4)cc3)ccc1[C@H]2C(C)(C)C(=O)Nc1nncs1 [Example 75],13.5
14,Cc1ccc2c(n1)Oc1nc(-c3ccc(CC(C)C)cc3)ccc1[C@H]2C(C)(C)C(=O)Nc1nncs1 [Example 77],2.53
15,CCSc1ccc(-c2ccc3c(n2)Oc2nc(C)ccc2[C@@H]3C(C)(C)C(=O)Nc2nncs2)cc1 [Example 78],2.15
16,Cc1ccc2c(n1)Oc1nc(-c3ccc(S(=O)(=O)C(C)C)cc3)ccc1[C@H]2C(C)(C)C(=O)Nc1nncs1 [Example 83],25.2
17,"CCN(C)C(=O)c1ccc(-c2ccc3c(n2)Oc2c(ccc[n+]2[O-])C3C(C)(C)C(=O)Nc2nncs2)cc1 (stereo not shown) [Example 84, 4-(5-(1,1-dimethyl-2-oxo-2-(1,3,4-thiadiazol-2-ylamino)ethyl)-9-oxido-5H-pyrido[3′,2′:5,6]pyrano[2,3-b]pyridin-2-yl)-N-ethyl-N-methylbenzamide]",1150
18,Cc1ccc2c(n1)Oc1nc(-c3ccc(C(=O)N4CCC[C@@H]4C(N)=O)cc3)ccc1[C@H]2C(C)(C)C(=O)Nc1nnc(C)s1 [Example 91],122

# Results, then the molecule that gave them:
row,Ki [nM],Compound
1,199,"CC(C)(C(=O)Nc1nncs1)C1c2ccncc2Oc2nc(-c3ccc(C(=O)N4CCOCC4)cc3)ccc21 (stereo not shown) [Example 2, 2-methyl-2-(2-(4-(4-morpholinylcarbonyl)phenyl)-5H-pyrido[4′,3′:5,6]pyrano[2,3-b]pyridin-5-yl)-N-1,3,4-thiadiazol-2-ylpropanamide]"
2,65.6,CCN(C)C(=O)c1ccc(-c2ccc3c(n2)Oc2ncccc2C3C(C)(C)C(=O)Nc2nnc(C(=O)NC3CC3)s2)cc1 (stereo not shown) [Example 7]
3,269,Cc1ccc2c(n1)Oc1nc(Cl)ccc1C2C(C)(C)C(=O)Nc1nncs1 (stereo not shown) [Example 19]
4,4.59,Cc1ccc2c(n1)Oc1nc(-c3ccc(Oc4ccccc4)cc3)ccc1[C@H]2C(C)(C)C(=O)Nc1nncs1 [Example 23]
5,14.2,Cc1ccc2c(n1)Oc1nc(-c3ccc(C(=O)N4CCCC4)c(F)c3)ccc1[C@H]2C(C)(C)C(=O)Nc1nncs1 [Example 28]
6,18.9,CSc1ccc(-c2ccc3c(n2)Oc2nc(C)ccc2[C@@H]3C(C)(C)C(=O)Nc2nncs2)cc1 [Example 29]
7,134,CNC(=O)c1nnc(NC(=O)C(C)(C)[C@H]2c3ccc(C)nc3Oc3nc(-c4ccc(C(=O)N(C)C)cc4)ccc32)s1 [Example 45]
8,149,CCN(C)C(=O)c1ccc(-c2ccc3c(n2)Oc2nc(C)ccc2[C@@H]3C(C)(C)C(=O)Nc2nnc(C(=O)N(C)C)s2)cc1 [Example 47]
9,106,Cc1ccc2c(n1)Oc1nc(-c3ccc(C(=O)N(C)C)cc3)ccc1[C@H]2C(C)(C)C(=O)Nc1ncc(C(=O)NC2CC2)s1 [Example 53]
10,657,"CN(C)C(=O)c1ccc(-c2ccc3c(n2)Oc2nc(-c4ccccc4)ccc2C3C(C)(C)C(=O)Nc2nncs2)cc1 (stereo not shown) [Example 65, 4-(5-(1,1-dimethyl-2-oxo-2-(1,3,4-thiadiazol-2-ylamino)ethyl)-8-phenyl-5H-pyrido[3′,2′:5,6]pyrano[2,3-b]pyridin-2-yl)-N,N-dimethylbenzamide]"
11,27.6,Cc1ccc2c(n1)Oc1nc(-c3ccc(OC(C)C)nc3)ccc1[C@H]2C(C)(C)C(=O)Nc1nncs1 [Example 74]
12,40.5,Cc1ccc2c(n1)Oc1nc(-c3ccc(OC(C)(C)C)cc3)ccc1[C@H]2C(C)(C)C(=O)Nc1nncs1 [Example 79]
13,1150,Cc1ccc2c(n1)Oc1nc(-c3ccc(CN4CCCC4)cc3)ccc1[C@H]2C(C)(C)C(=O)Nc1nncs1 [Example 80]
14,67.2,CCN(C)C(=O)c1ccc(-c2ccc3c(n2)Oc2nc(C)ccc2[C@@H]3C(C)(C)C(=O)Nc2nnc(C(=O)NCCO)s2)cc1 [Example 85]
15,103,Cc1ccc2c(n1)Oc1nc(-c3ccc(C(=O)N4CCC[C@@H]4C(N)=O)cc3)ccc1[C@H]2C(C)(C)C(=O)Nc1nncs1 [Example 90]
16,153,"Cc1ccc2c(n1)Oc1nc(-c3ccc(C(=O)N4CCOCC4)cc3)ccc1[C@H]2C(C)(C)C(=O)Nc1nnn(C)n1 [Example 92, 2-methyl-2-((5S)-2-methyl-8-(4-(4-morpholinylcarbonyl)phenyl)-5H-pyrido[3′,2′:5,6]pyrano[2,3-b]pyridin-5-yl)-N-(2-methyl-2H-tetrazol-5-yl)propanamide]"
